Consider eight molecules from US11839212B2, “Synergistic pesticidal compositions and methods for delivery of insecticidal active ingredients” (0903608 B.C. Ltd., priority 2018, dated 2023).

Common to all, as to assay: Synergistic Growth Inhibition Assay (MIC and FIC index, 96-well, resazurin)
Holding throughout (format): cell-based

One experiment deals with Fusarium oxysporum. As to conditions: for MIC: Fusarium oxysporum. The protocol: (§1) In some embodiments, the synergistic action between the pesticidal active ingredient, and the at least one C6-C10 (or alternatively C11 or C12) saturated or unsaturated aliphatic acid components of the pesticidal compositions according to embodiments of the present disclosure was tested using a Synergistic Growth Inhibition Assay, which is derived from and related to a checkerboard assay as is known in the art for testing of combinations of antimicrobial agents. In the Synergistic Growth Inhibition Assay used in accordance with some embodiments of the present disclosure, multiple dilutions of combinations of pesticidal active ingredient and at least one C6-C10 saturated or unsaturated aliphatic acid agents are tested in individual cells for inhibitory activity against a target pest or pathogenic organism. In one such embodiment, the combinations of pesticidal active ingredient and C6-C10 (or alternatively C11 or C12) saturated or unsaturated aliphatic acid agents may preferably be tested in decreasing concentrations. In a further such embodiment, the combinations of pesticidal active ingredient and C6-C10 (or alternatively C11 or C12) saturated or unsaturated aliphatic acid agents may be tested in increasing concentrations. These multiple combinations of the pesticidal active ingredient and at least one C6-C10 (or alternatively C11 or C12) saturated or unsaturated aliphatic acid agents may be prepared in 96-well microtiter plates. In one such embodiment, the Synergistic Growth Inhibition Assay then comprises rows which each contain progressively decreasing concentrations of the pesticidal active ingredient and one or more C6-C10 (or alternatively C11 or C12) saturated or unsaturated aliphatic acid agents to test for the MIC of the agents in combination at which growth of the target pest or pathogen is inhibited. Thus, each well of the microtiter plate is a unique combination of the two agents, at which inhibitory efficacy of the combination against the target pest or pathogen can be determined.
(§2) In one embodiment according to the present disclosure, for each row of microtiter cells in the Synergistic Growth Inhibition Assay, the FIC index is calculated from the lowest concentration of the pesticidal active ingredient and one or more C6-C10 saturated or unsaturated aliphatic acid agents necessary to inhibit growth of a target pest or pathogen. The FIC of each component is derived by dividing the concentration of the agent present in that well of the microtiter plate by the minimal inhibitory concentration (MIC) needed of that agent alone to inhibit growth of the target pest or pathogen. The FIC index is then the sum of these values for both agents in that well of the microtiter plate. […] Fractional inhibitory concentration indices may then used as measure of synergy. […] When the FIC index is equal to 1, the combination is additive.
(§3) Then, serial dilutions of these initial compositions in successive wells in the row of the microtiter plate were used to assay the pesticidal composition under the same conditions to determine the concentration of the composition combining the two agents corresponding to the microtiter well in which growth inhibition of the target pest or organism ceases.
Resazurin dye (also known as Alamar blue dye) was used as an indicator to determine the presence of growth or inhibition of growth of Fusarium oxysporum in the wells of the 96 well microtiter plates used in the exemplary Synergistic Growth Inhibition Assay. In addition to the color change of the resazurin dye in the presence of growth of the Fusarium oxysporum, an optical or visual examination of the microtiter well may also be made to additionally determine the presence of growth or inhibition of growth of the Fusarium oxysporum.

A further experiment has as its system Botrytis cinerea. As to conditions: for MIC: Botrytis cinerea, 48 h. As for the experimental part:
as §1, §2, §3
Similarly to as described above, Resazurin was used as an indicator of growth or inhibition of growth of Botrytis cinerea in the exemplary Synergistic Growth Inhibition Assay. In addition to the color change of the resazurin, an optical or visual examination of the microtiter well may also be made to additionally determine the presence of growth or inhibition of growth of the Botrytis cinerea.

The test system of another experiment is Sclerotinia sclerotiorum. The settings on record: for MIC: Sclerotinia sclerotiorum. As for the experimental part: as §1, §2, §3
Similarly to as described above, Resazurin was used as an indicator of growth or inhibition of growth of Sclerotinia sclerotiorum in the exemplary Synergistic Growth Inhibition Assay. In addition to the color change of the resazurin, an optical or visual examination of the microtiter well may also be made to additionally determine the presence of growth or inhibition of growth of the Sclerotinia sclerotiorum.

Where [1] appears, read: Table 56, Compound B alone, 48 hours incubation, read-out: MIC (B).
Setting [2] is: 48 h, Table 15B, Compound A alone, incubation 48 hours, read-out: MIC (A).
[3] abbreviates: Table 20B, Compound A alone, incubation 7 days, read-out: MIC (A).
The mark [4] stands for this setting: Table 23, Compound A alone, incubation 48 hours, read-out: MIC (A).

By MIC is commonly meant the least concentration at which growth counts as inhibited.

Like-named read-outs stand apart in the source and are kept apart here.

As to `CCC/C=C/C(=O)O` [Trans-2-hexenoic acid, trans-2-hexenoic acid], the minimum inhibitory concentration (MIC) in the experiment on Fusarium oxysporum (24 h, Table 1, Compound B alone, 24 hour incubation, read-out: MIC(B)) came out at 312 µg/mL; in the experiment with Fusarium oxysporum (24 h, Table 2, Compound B alone, 24 hour incubation, read-out: MIC (B)) it was 312 µg/mL; in the experiment with Botrytis cinerea (Table 43, Compound B alone, 48 hours incubation, read-out: MIC (B)), 78.1 µg/mL; in the experiment with Botrytis cinerea (Table 44, Compound B alone, 48 hours incubation, read-out: MIC (B)) it was 39.1 µg/mL; with Botrytis cinerea (Table 45, Compound B alone, 48 hours incubation, read-out: MIC (B)), 156 µg/mL; in the experiment with Botrytis cinerea (Table 52, Compound B alone, 48 hours incubation, read-out: MIC(B)) it was 156 µg/mL. Moreover, the MIC in the experiment on Botrytis cinerea (setting [1]) came to 312 µg/mL; in the experiment with Sclerotinia sclerotiorum (Table 33, Compound B alone, 7 days incubation, read-out: MIC (B)) it was 156 µg/mL.
In the case of `CO/C=C(/C(=O)OC)c1ccccc1Oc1cc(Oc2ccccc2C#N)ncn1` [Azoxystrobin, reference compound], the “MIC (A)” value in the experiment on Fusarium oxysporum (Table 11, Compound A alone, incubation 48 hours) worked out at 75 µg/mL; in the experiment on Fusarium oxysporum (Table 15B, Compound A alone, incubation 48 hours), 150 µg/mL; with Fusarium oxysporum (Table 28, Compound A alone, 48 hours incubation) it was 150 µg/mL; in the experiment on Botrytis cinerea (Table 23, Compound A alone, incubation 48 hours) it was 75 µg/mL; in the experiment on Botrytis cinerea (Table 45, Compound A alone, 48 hours incubation), 75 µg/mL; in the experiment with Sclerotinia sclerotiorum (Table 17, Compound A alone, incubation 7 days), 150 µg/mL. For the same molecule, the “MIC (A)” value in the experiment on Sclerotinia sclerotiorum (Table 20B, Compound A alone, incubation 7 days) was 75 µg/mL; in the experiment with Sclerotinia sclerotiorum (Table 35, Compound A alone, 7 days incubation) it was 150 µg/mL.
For the molecule `CCCCCCCC(O)CC(=O)O` (centres unmarked) [3-Hydroxydecanoic acid, 3-hydroxydecanoic acid], the MIC with Fusarium oxysporum (48 h, Table 10, Compound B alone, incubation 48 hours, read-out: MIC (B)) was found to be 250 µg/mL; in the experiment on Fusarium oxysporum (48 h, Table 12, Compound B alone, incubation 48 hours, read-out: MIC (B)) it was 250 µg/mL; in the experiment on Fusarium oxysporum (48 h, Table 13, Compound B alone, incubation 48 hours, read-out: MIC (B)), 250 µg/mL; in the experiment with Fusarium oxysporum (48 h, Table 15B, Compound B alone, incubation 48 hours, read-out: MIC (B)), 250 µg/mL; in the experiment with Botrytis cinerea (Table 51, Compound B alone, 48 hours incubation, read-out: MIC (B)), 62.5 µg/mL; in the experiment with Botrytis cinerea (setting [1]), 125 µg/mL. Besides, the MIC in the experiment with Botrytis cinerea (Table 59, Compound B alone, 48 hours incubation, read-out: MIC (B)) came to 125 µg/mL; in the experiment on Sclerotinia sclerotiorum (Table 16, Compound B alone, incubation 7 days, read-out: MIC (B)) it was 125 µg/mL; in the experiment with Sclerotinia sclerotiorum (Table 20B, Compound B alone, incubation 7 days, read-out: MIC (B)), 62.5 µg/mL.
For `CC1COC(Cn2cncn2)(c2ccc(Oc3ccc(Cl)cc3)cc2Cl)O1` (centres unmarked) [Difenoconazole, reference compound], the minimal inhibitory concentration (MIC) turned out to be 51 µg/mL in the experiment with Fusarium oxysporum (48 h, Table 14, Compound A alone, incubation 48 hours, read-out: MIC (A)); 51 µg/mL in the experiment with Fusarium oxysporum (setting [2]); 51 µg/mL in the experiment on Fusarium oxysporum (48 h, Table 30, Compound A alone, 48 hours incubation, read-out: MIC (A)); 51 µg/mL in the experiment with Botrytis cinerea (Table 24, Compound A alone, 48 hours incubation, read-out: MIC (A)); 12.8 µg/mL with Sclerotinia sclerotiorum (Table 20A, Compound A alone, incubation 7 days, read-out: MIC (A)); 25.5 µg/mL in the experiment on Sclerotinia sclerotiorum (setting [3]). Besides, in the experiment with Sclerotinia sclerotiorum (Table 38, Compound A alone, 7 days incubation, read-out: MIC (A)), the minimal inhibitory concentration (MIC) came out at 25.5 µg/mL.
With `CC(C)(C)C(O)(CCc1ccc(Cl)cc1)Cn1cncn1` (centres unmarked) [Tebuconazole, reference compound], the minimum inhibitory concentration (MIC) in the experiment on Fusarium oxysporum (48 h, Table 15A, Compound A alone, incubation 48 hours, read-out: MIC (A)) came out at 255 µg/mL; in the experiment with Fusarium oxysporum (setting [2]) it was 225 µg/mL; in the experiment with Fusarium oxysporum (48 h, Table 32, Compound A alone, 48 hours incubation, read-out: MIC (A)) it was 225 µg/mL; in the experiment on Botrytis cinerea (setting [4]), 112 µg/mL; with Botrytis cinerea (Table 25, Compound A alone, 48 hours incubation, read-out: MIC (A)) it was 112 µg/mL; with Botrytis cinerea (Table 50, Compound A alone, 48 hours incubation, read-out: MIC (A)), 112 µg/mL. In addition, the MIC in the experiment with Sclerotinia sclerotiorum (Table 19, Compound A alone, incubation 7 days, read-out: MIC (A)) came out at 225 µg/mL; with Sclerotinia sclerotiorum (setting [3]), 56.2 µg/mL; with Sclerotinia sclerotiorum (Table 41, Compound A alone, 7 days incubation, read-out: MIC (A)), 112 µg/mL; in the experiment on Sclerotinia sclerotiorum (Table 42, Compound A alone, incubation 7 days, read-out: MIC (A)), 112 µg/mL.
Take `Cc1cc(C2CC2)nc(Nc2ccccc2)n1` [Cyprodinil, reference compound]: the MIC with Fusarium oxysporum (48 h, Table 13, Compound A alone, incubation 48 hours, read-out: MIC (A)) worked out at […]; in the experiment on Fusarium oxysporum (48 h, Table 29, Compound A alone, 48 hours incubation, read-out: MIC (A)), […]; in the experiment with Botrytis cinerea (setting [4]) it was 4.5 µg/mL; in the experiment with Botrytis cinerea (Table 26, Compound A alone, 48 hours incubation, read-out: MIC (A)), 4.5 µg/mL; in the experiment on Botrytis cinerea (Table 47, Compound A alone, 48 hours incubation, read-out: MIC (A)), 4.5 µg/mL; with Sclerotinia sclerotiorum (setting [3]), […].
Take `COC(=O)N(OC)c1ccccc1COc1ccn(-c2ccc(Cl)cc2)n1` [Pyraclostrobin, pyraclostrobin, reference compound]: the MIC came to 15.4 µg/mL in the experiment on Fusarium oxysporum (24 h, Table 1, Compound A alone, 24 hour incubation, read-out: MIC(A)); 15 µg/mL in the experiment with Fusarium oxysporum (48 h, Table 10, Compound A alone, incubation 48 hours, read-out: MIC (A)); 15 µg/mL in the experiment with Fusarium oxysporum (setting [2]); 15 µg/mL with Fusarium oxysporum (48 h, Table 27, Compound A alone, 48 hours incubation, read-out: MIC (A)); 1.9 µg/mL with Botrytis cinerea (Table 21, Compound A alone, incubation 48 hours, read-out: MIC (A)); 3.75 µg/mL in the experiment on Botrytis cinerea (setting [4]). The minimal inhibitory concentration (MIC) came out at 1.88 µg/mL in the experiment with Botrytis cinerea (Table 43, Compound A alone, 48 hours incubation, read-out: MIC (A)); 1.88 µg/mL in the experiment on Botrytis cinerea (Table 44, Compound A alone, 48 hours incubation, read-out: MIC (A)); 7.5 µg/mL in the experiment with Sclerotinia sclerotiorum (Table 16, Compound A alone, incubation 7 days, read-out: MIC (A)); 3.75 µg/mL in the experiment on Sclerotinia sclerotiorum (setting [3]); 7.5 µg/mL in the experiment with Sclerotinia sclerotiorum (Table 33, Compound A alone, 7 days incubation, read-out: MIC (A)); 3.75 µg/mL in the experiment on Sclerotinia sclerotiorum (Table 34, Compound A alone, 7 days incubation, read-out: MIC (A)).
Take `N#Cc1c[nH]cc1-c1cccc2c1OC(F)(F)O2` [Fludioxonil, fludioxonil, reference compound]: the MIC in the experiment with Fusarium oxysporum (24 h, read-out: MIC (A), Table 2, Compound A alone, 24 hour incubation) was 0.481 µg/mL; with Fusarium oxysporum (24 h, read-out: MIC (A), Table 3, Compound A alone, 24 hour incubation), 0.241 µg/mL; in the experiment with Fusarium oxysporum (24 h, read-out: MIC(A), Table 7, Compound A alone, 24 hour incubation) it was 0.481 µg/mL; in the experiment on Fusarium oxysporum (48 h, read-out: MIC (A), Table 13, Compound A alone, incubation 48 hours) it was 21 µg/mL; with Fusarium oxysporum (48 h, read-out: MIC (A), Table 15B, Compound A alone, incubation 48 hours), 21 µg/mL; in the experiment on Fusarium oxysporum (48 h, read-out: MIC (A), Table 29, Compound A alone, 48 hours incubation), 21 µg/mL. In addition, the MIC with Fusarium oxysporum (read-out: MIC (A), Table 8, Compound A alone) amounted to 0.481 µg/mL; with Sclerotinia sclerotiorum (read-out: MIC (A), Table 37, Compound A alone, 7 days incubation), 0.164 µg/mL.
